Entries after “also recorded” stand apart in the source; their conditions may differ.
How the values were obtained:
[1] = Phage stability in simulated gastric fluid (SGF); format: physicochemical; conditions: for phage concentration, unencapsulated, SGF-exposed: SGF pH 2.5 with pepsin; for phage concentration, unencapsulated, SGF-exposed / phage concentration, unencapsulated, PBS-treated: 41° C.; for phage concentration lower in SGF-exposed than in PBS-exposed samples: 90 minutes of exposure; for phage concentration, unencapsulated, PBS-treated: 1×PBS control
Procedure: The stability of bacteriophages in gastric environments was tested by exposing both encapsulated and unencapsulated bacteriophages to simulated gastric fluid (SGF; 0.32% pepsin (w/v) in 0.2% NaCl; pH 2.5) and to 1×PBS (Moghtader et al., 2016). In this experiment, unencapsulated phages (0.5 mL, in concentrations ranging from 1×10^9 to 4×10^8 PFU/mL depending on the phage type) were added to 4.5 mL of either SGF or PBS (5 replicates per treatment) and incubated at 41° C. This temperature was chosen as it is a typical internal temperature for chickens. Encapsulated phages (0.5 g, in concentrations ranging from 2×10^9 to 2×10^8 PFU/mL depending on the phage type) were also added to 4.5 mL of either SGF or PBS (5 replicates per treatment) and incubated at 41° C. Aliquots (100 μL) were collected from each unencapsulated phage sample after 5, 15, 30, 60, and 90 minutes of exposure to SGF or PBS. These aliquots were serially diluted, and phage concentrations were measured by standard plaque assay. At 15, 30, 60, and 90 minutes post-SGF or PBS exposure, microencapsulated phages were washed with SM buffer to remove residual SGF or PBS and then dissolved in a dissolving solution. Aliquots of the dissolved microcapsules were serially diluted and phage concentrations were measured by standard plaque assay. This experiment was conducted in triplicate for each phage type. Samples containing SGF and unencapsulated bacteriophages were serially diluted without washing and phage concentrations were measured by standard plaque assay as described above. Concentrations of viable phages after exposure to SGF or PBS for a given length of time were then compared.

[2] = tested on: E. coli serotype O5 (APEC); assay: Host range spot assay; format: cell-based, Escherichia coli; design: key: — indicates no lysis at all; 0.1-1.0 indicates that the phage is semi-lytic; 1.1-2.0 indicates moderate lysis of bacteria; 2.1-3.0 indicates complete lysis of bacteria and formation of a transparent, circular clearing on the bacterial lawn; conditions: E. coli serotype O5, scale 0-3
Procedure: (§1) The host range of each bacteriophage type was determined by performing spot assays using each of the ten distinct APEC serotypes mentioned above. Spot assays were performed as known in the art (Barrow et al., 1998, Clinical and Diagnostic Laboratory Immunology, 5 (3), 294-298). 100 μL aliquots of log-phase bacterial cultures were combined with 67.5 μL 1M CaCl2) and 4 mL LB overlay, mixed briefly, and poured over LB agar plates. Once the overlay had solidified, 5 μL aliquots of individual phage types were applied (i.e., spotted) onto the plates, and plates were incubated at 37° C. overnight. Plates were assessed for clearings the following day and the degree of lysis was measured using a four-point scale in which 0 indicated no lysis, 1.0 indicated some lysis, 2.0 indicated moderate lysis, and 3 indicated complete lysis. Spot assays were conducted in triplicate for each phage and APEC strain.

[3] = tested on: E. coli serotype O78:H51 (APEC); assay: Host range spot assay; format: cell-based, Escherichia coli; design: key: — indicates no lysis at all; 0.1-1.0 indicates that the phage is semi-lytic; 1.1-2.0 indicates moderate lysis of bacteria; 2.1-3.0 indicates complete lysis of bacteria and formation of a transparent, circular clearing on the bacterial lawn; conditions: E. coli serotype O78:H51, scale 0-3
Procedure: as §1

[4] = tested on: E. coli serotype O2:H4 (APEC); assay: Host range spot assay; format: cell-based, Escherichia coli; design: key: — indicates no lysis at all; 0.1-1.0 indicates that the phage is semi-lytic; 1.1-2.0 indicates moderate lysis of bacteria; 2.1-3.0 indicates complete lysis of bacteria and formation of a transparent, circular clearing on the bacterial lawn; conditions: E. coli serotype O2:H4, scale 0-3
Procedure: as §1

[5] = tested on: E. coli serotype O6:H31 (APEC); assay: Host range spot assay; format: cell-based, Escherichia coli; design: key: — indicates no lysis at all; 0.1-1.0 indicates that the phage is semi-lytic; 1.1-2.0 indicates moderate lysis of bacteria; 2.1-3.0 indicates complete lysis of bacteria and formation of a transparent, circular clearing on the bacterial lawn; conditions: E. coli serotype O6:H31, scale 0-3
Procedure: as §1

[6] = tested on: E. coli serotype O78:H9 (APEC); assay: Host range spot assay; format: cell-based, Escherichia coli; design: key: — indicates no lysis at all; 0.1-1.0 indicates that the phage is semi-lytic; 1.1-2.0 indicates moderate lysis of bacteria; 2.1-3.0 indicates complete lysis of bacteria and formation of a transparent, circular clearing on the bacterial lawn; conditions: E. coli serotype O78:H9, scale 0-3
Procedure: as §1

[7] = tested on: E. coli serotype O1:H23 (APEC); assay: Host range spot assay; format: cell-based, Escherichia coli; design: key: — indicates no lysis at all; 0.1-1.0 indicates that the phage is semi-lytic; 1.1-2.0 indicates moderate lysis of bacteria; 2.1-3.0 indicates complete lysis of bacteria and formation of a transparent, circular clearing on the bacterial lawn; conditions: E. coli serotype O1:H23, scale 0-3
Procedure: as §1

[8] = tested on: E. coli serotype O78 (APEC); assay: Host range spot assay; format: cell-based, Escherichia coli; design: key: — indicates no lysis at all; 0.1-1.0 indicates that the phage is semi-lytic; 1.1-2.0 indicates moderate lysis of bacteria; 2.1-3.0 indicates complete lysis of bacteria and formation of a transparent, circular clearing on the bacterial lawn; conditions: E. coli serotype O78, scale 0-3
Procedure: as §1

[9] = tested on: E. coli serotype O1:H7 (APEC); assay: Host range spot assay; format: cell-based, Escherichia coli; design: key: — indicates no lysis at all; 0.1-1.0 indicates that the phage is semi-lytic; 1.1-2.0 indicates moderate lysis of bacteria; 2.1-3.0 indicates complete lysis of bacteria and formation of a transparent, circular clearing on the bacterial lawn; conditions: E. coli serotype O1:H7, scale 0-3
Procedure: as §1

[10] = tested on: E. coli serotype O2 (APEC); assay: Host range spot assay; format: cell-based, Escherichia coli; design: key: — indicates no lysis at all; 0.1-1.0 indicates that the phage is semi-lytic; 1.1-2.0 indicates moderate lysis of bacteria; 2.1-3.0 indicates complete lysis of bacteria and formation of a transparent, circular clearing on the bacterial lawn; conditions: E. coli serotype O2, scale 0-3
Procedure: as §1

ten APEC strains = assay: Host range (lytic spectrum) over all ten APEC strains, spot assays; format: cell-based, Escherichia coli; conditions: for number of different APEC strains lysed: of ten APEC strains; for degree of lysis against the APEC strains lysed: over the strains that the phage lyses, scale 0-3
Procedure: as §1

Row | Substance | phage concentration, encapsulated, PBS-exposed ([1]; encapsulated phage, 60 minutes) | phage concentration, encapsulated, PBS-exposed ([1]; encapsulated phage, 90 minutes) | phage concentration, encapsulated, SGF-exposed ([1]; encapsulated phage, 60 minutes) | phage concentration, encapsulated, SGF-exposed ([1]; encapsulated phage, 90 minutes) | phage concentration, unencapsulated, SGF-exposed ([1]; unencapsulated phage) | degree of lysis [2] | degree of lysis [3] | degree of lysis [4] | degree of lysis [5] | degree of lysis [6] | degree of lysis [7] | degree of lysis [8] | degree of lysis [9] | degree of lysis [10] | number of different APEC strains lysed (ten APEC strains) | phage concentration lower in SGF-exposed than in PBS-exposed samples ([1]; unencapsulated phage) | degree of lysis against the APEC strains lysed (ten APEC strains) | phage concentration lower in SGF-exposed than in PBS-exposed samples ([1]; encapsulated phage) | phage concentration, unencapsulated, PBS-treated ([1]; unencapsulated phage) | further results
1 | Escherichia phage vB_Eco_AHC | 8.31 log10 PFU/mL | 8.23 log10 PFU/mL | 8.13 log10 PFU/mL | 7.15 log10 PFU/mL | could not be detected; also recorded: not detectable | 1.7 | 1.0 | — | 2.7 | — | 1.0 | 1.7 | — | 3.0 | six and at least two |  |  |  |  | 
2 | Escherichia phage vB_Eco_AHP | 9.23 log10 PFU/mL | 9.19 log10 PFU/mL | 9.21 log10 PFU/mL | 8.12 log10 PFU/mL |  | — | — | — | 3.0 | — | 3.0 | — | 3.0 | — | four and at least two | 2.35 log10 PFU/mL | 2.7-3.0 |  |  | phage concentration SGF-exposed versus PBS-exposed ([1]; unencapsulated phage, after 5 and 15 minutes of exposure, P>0.05): No significant differences; phage concentration SGF-exposed versus PBS-exposed ([1]; unencapsulated phage, after 30, 60, and 90 minutes of exposure, P<0.05): significantly lower
3 | Escherichia phage vB_Eco_AKA | 8.27 log10 PFU/mL | 8.22 log10 PFU/mL | 8.17 log10 PFU/mL | 7.3 log10 PFU/mL | could not be detected; also recorded: not detectable | 1.7 | 1.0 | — | 3.0 | — | 1.0 | 1.3 | — | 2.7 | six and at least two |  |  |  |  | 
4 | Escherichia phage vB_Eco_MIA | 8.27 log10 PFU/mL | 8.27 log10 PFU/mL | 8.14 log10 PFU/mL | 7.34 log10 PFU/mL | could not be detected; also recorded: not detectable | 1.7 | 1.0 | — | 2.7 | — | 1.0 | 2.0 | — | 3.0 | six and at least two |  |  |  |  | 
5 | Escherichia phage vB_Eco_MP_1 [MP1] | 9.23 log10 PFU/mL | 9.19 log10 PFU/mL | 9.09 log10 PFU/mL | 8.11 log10 PFU/mL | 8.71 log10 PFU/mL | — | — | 2.7 | — | — | — | — | — | — | two and at least two | 3.9 log10 PFU/mL | 2.7 | 0.97 log10 PFU/mL | 9.27 log10 PFU/mL | 
6 | Escherichia phage vB_Eco_MP_2 [MP2] | 9.15 log10 PFU/mL | 9.07 log10 PFU/mL | 9.11 log10 PFU/mL | 8.41 log10 PFU/mL | 7.72 log10 PFU/mL | — | — | 3.0 | — | — | — | — | — | — | two and at least two | 4.5 log10 PFU/mL | 3.0 | 0.74 log10 PFU/mL | 9.05 log10 PFU/mL | 

From patent US20250041367A1, “BACTERIOPHAGES AND USE THEREOF FOR THE TREATMENT OR PREVENTION OF INFECTION CAUSED BY E. COLI” (Purdue Research Foundation, priority 2023, published 2025)
